In ChEMBL document CHEMBL4130445, “TNF-α and IL-6 inhibitors: Conjugates of N-substituted indole and aminophenylmorpholin-3-one as anti-inflammatory agents” (Eur J Med Chem, 2017):
Activity calls are given as the source filed them. No cut-off for these calls is given here.

Experiments:
BV-2 [1] = experiment: Cytotoxicity in mouse BV2 cells assessed as reduction in cell viability incubated for 48 hrs by MTT assay; assay type: cell-based; settings: BV-2, 48 h
BV-2 [2] = experiment: Suppression of LPS-induced morphological changes in mouse BV2 cells at 5 uM pre-incubated before LPS stimulation by phase contrast microscopy; assay type: functional, cell-based
BV-2 [3] = experiment: Suppression of LPS-induced morphological changes in mouse BV2 cells at 10 uM pre-incubated before LPS stimulation by phase contrast microscopy; assay type: functional, cell-based
[4] = biological target: T1, Prostaglandin G/H synthase 2 (Homo sapiens) (UniProt P35354); experiment: Inhibition of COX2 (unknown origin) by immunoassay
T1 sequence (whole entry): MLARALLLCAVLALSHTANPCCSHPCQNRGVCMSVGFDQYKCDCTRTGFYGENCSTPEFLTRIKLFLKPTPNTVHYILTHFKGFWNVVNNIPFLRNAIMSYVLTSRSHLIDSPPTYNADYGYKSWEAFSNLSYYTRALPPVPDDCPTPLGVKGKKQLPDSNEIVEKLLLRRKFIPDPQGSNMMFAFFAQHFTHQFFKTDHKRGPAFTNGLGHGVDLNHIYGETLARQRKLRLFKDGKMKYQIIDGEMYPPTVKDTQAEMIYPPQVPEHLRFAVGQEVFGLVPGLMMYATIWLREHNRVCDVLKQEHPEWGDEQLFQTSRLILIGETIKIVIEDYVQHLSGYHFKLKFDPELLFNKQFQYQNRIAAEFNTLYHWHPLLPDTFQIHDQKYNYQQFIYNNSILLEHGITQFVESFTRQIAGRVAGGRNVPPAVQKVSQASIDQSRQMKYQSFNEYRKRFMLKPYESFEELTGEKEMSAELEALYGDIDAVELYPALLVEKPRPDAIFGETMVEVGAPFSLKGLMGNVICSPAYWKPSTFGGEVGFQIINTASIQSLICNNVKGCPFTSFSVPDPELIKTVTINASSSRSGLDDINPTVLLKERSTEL

BV-2 [5] = experiment: Inhibition of LPS-induced TNFalpha production in mouse BV2 cells at 10 uM pre-incubated before LPS stimulation by ELISA; assay type: functional
BV-2 [6] = experiment: Inhibition of LPS-induced TNFalpha production in mouse BV2 cells at 20 uM pre-incubated before LPS stimulation by ELISA; assay type: functional
BV-2 [7] = experiment: Inhibition of LPS-induced IL6 production in mouse BV2 cells at 10 uM pre-incubated before LPS stimulation by ELISA; assay type: functional
BV-2 [8] = experiment: Inhibition of LPS-induced IL6 production in mouse BV2 cells at 20 uM pre-incubated before LPS stimulation by ELISA; assay type: functional
Mus musculus [9] = experiment: Analgesic activity in Swiss albino mouse model of acetic acid induced writhing assessed as inhibition of pain response at 10 mg/kg, ip dosed 30 mins before acetic acid injection; assay type: functional
[10] = Cytotoxicity in mouse BV2 cells assessed as cell viability at 0.5 uM incubated for 48 hrs by MTT assay (reference value: 100%); assay type: cell-based, BV-2; settings: read-out: Activity
[11] = Cytotoxicity in mouse BV2 cells assessed as cell viability at 1 uM incubated for 48 hrs by MTT assay (reference value: 100%); assay type: cell-based, BV-2; settings: read-out: Activity
[12] = Cytotoxicity in mouse BV2 cells assessed as cell viability at 5 uM incubated for 48 hrs by MTT assay (reference value: 100%); assay type: cell-based, BV-2; settings: read-out: Activity
[13] = Cytotoxicity in mouse BV2 cells assessed as cell viability at 10 uM incubated for 48 hrs by MTT assay (reference value: 100%); assay type: cell-based, BV-2; settings: read-out: Activity
[14] = Cytotoxicity in mouse BV2 cells assessed as cell viability at 15 uM incubated for 48 hrs by MTT assay (reference value: 100%); assay type: cell-based, BV-2; settings: read-out: Activity
[15] = Cytotoxicity in mouse BV2 cells assessed as cell viability at 20 uM incubated for 48 hrs by MTT assay (reference value: 100%); assay type: cell-based, BV-2; settings: read-out: Activity
[16] = Cytotoxicity in mouse BV2 cells assessed as cell viability at 40 uM incubated for 48 hrs by MTT assay (reference value: 100%); assay type: cell-based, BV-2; settings: read-out: Activity
[17] = Cytotoxicity in mouse BV2 cells assessed as cell viability at 60 uM incubated for 48 hrs by MTT assay (reference value: 100%); assay type: cell-based, BV-2; settings: read-out: Activity
[18] = Cytotoxicity in mouse BV2 cells assessed as cell viability at 80 uM incubated for 48 hrs by MTT assay (reference value: 100%); assay type: cell-based, BV-2; settings: read-out: Activity
[19] = Cytotoxicity in mouse BV2 cells assessed as cell viability at 100 uM incubated for 48 hrs by MTT assay (reference value: 100%); assay type: cell-based, BV-2; settings: read-out: Activity
BV-2 [20] = experiment: Inhibition of LPS-induced nitric oxide production in mouse BV2 cells assessed as nitric oxide level at 10 uM pre-incubated before LPS stimulation by Griess reagent based assay (reference value: 121.09%); assay type: functional; set-up: scale not given: the % may be the effect or the level left
BV-2 [21] = experiment: Inhibition of LPS-induced nitric oxide production in mouse BV2 cells assessed as nitric oxide level at 20 uM pre-incubated before LPS stimulation by Griess reagent based assay (reference value: 121.09%); assay type: functional; set-up: scale not given: the % may be the effect or the level left
BV-2 [22] = experiment: Inhibition of LPS-induced TNFalpha production in mouse BV2 cells assessed as TNFalpha level at 10 uM pre-incubated before LPS stimulation by ELISA (reference value: 142.71%); assay type: functional; set-up: scale not given: the % may be the effect or the level left
BV-2 [23] = experiment: Inhibition of LPS-induced TNFalpha production in mouse BV2 cells assessed as TNFalpha level at 20 uM pre-incubated before LPS stimulation by ELISA (reference value: 142.71%); assay type: functional; set-up: scale not given: the % may be the effect or the level left
BV-2 [24] = experiment: Inhibition of LPS-induced IL6 production in mouse BV2 cells assessed as IL6 level at 10 uM pre-incubated before LPS stimulation by ELISA (reference value: 146.75%); assay type: functional; set-up: scale not given: the % may be the effect or the level left
BV-2 [25] = experiment: Inhibition of LPS-induced IL6 production in mouse BV2 cells assessed as IL6 level at 20 uM pre-incubated before LPS stimulation by ELISA (reference value: 146.75%); assay type: functional; set-up: scale not given: the % may be the effect or the level left
BV-2 [26] = experiment: Inhibition of LPS-induced TNFalpha production in mouse BV2 cells at 60 uM pre-incubated before LPS stimulation by ELISA; assay type: functional
BV-2 [27] = experiment: Suppression of LPS-induced morphological changes in mouse BV2 cells at 1 to 20 uM pre-incubated before LPS stimulation by phase contrast microscopy; assay type: functional, cell-based
Mus musculus [28] = species: Mus musculus; experiment: Inhibition of LPS-induced NFkappaB nuclear translocation in mouse BV2 cells pre-incubated before LPS stimulation by immunostaining based confocal laser microscopy; assay type: cell-based
[29] = biological target: Transcription factor Jun (Mus musculus) (UniProt P05627); experiment: Inhibition of LPS-induced AP1 nuclear translocation in mouse BV2 cells pre-incubated before LPS stimulation by immunostaining based confocal laser microscopy; assay type: cell-based
Transcription factor Jun (Mus musculus), sequence (P05627 whole entry): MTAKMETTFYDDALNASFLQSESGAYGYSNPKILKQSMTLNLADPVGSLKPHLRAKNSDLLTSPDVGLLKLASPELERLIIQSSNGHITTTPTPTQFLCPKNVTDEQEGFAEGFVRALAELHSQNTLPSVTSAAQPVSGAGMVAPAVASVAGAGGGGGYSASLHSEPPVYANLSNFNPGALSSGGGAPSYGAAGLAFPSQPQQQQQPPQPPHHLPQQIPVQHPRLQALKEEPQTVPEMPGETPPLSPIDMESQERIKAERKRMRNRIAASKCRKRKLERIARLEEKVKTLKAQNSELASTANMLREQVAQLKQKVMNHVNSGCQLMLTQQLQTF

BV-2 [30] = experiment: Inhibition of LPS-induced MMP9 production production in mouse BV2 cells assessed as MMP9 protein level pre-incubated before LPS stimulation by gelatin zymography (reference value: 105.113%); assay type: functional; set-up: scale not given: the % may be the effect or the level left
BV-2 [31] = experiment: Inhibition of LPS-induced MMP2 production production in mouse BV2 cells assessed as MMP2 protein level pre-incubated before LPS stimulation by gelatin zymography (reference value: 105.071%); assay type: functional; set-up: scale not given: the % may be the effect or the level left
BV-2 [32] = experiment: Inhibition of LPS-induced TNFalpha production in mouse BV2 cells at 100 uM pre-incubated before LPS stimulation by ELISA; assay type: functional
BV-2 [33] = experiment: Inhibition of LPS-induced MMP9 production production in mouse BV2 cells pre-incubated before LPS stimulation by gelatin zymography; assay type: functional, cell-based
BV-2 [34] = experiment: Inhibition of LPS-induced MMP2 production production in mouse BV2 cells pre-incubated before LPS stimulation by gelatin zymography; assay type: functional, cell-based

SMILES	inhibition [4]	IC50 (BV-2 [1]) [µM]	Activity (BV-2 [2])	Activity (BV-2 [3])	viability at 48 h, 0.5 µM [10] [%]	viability at 48 h, 1 µM [11] [%]	viability at 48 h, 5 µM [12] [%]	viability at 48 h, 10 µM [13] [%]	viability at 48 h, 15 µM [14] [%]	viability at 48 h, 20 µM [15] [%]	viability at 48 h, 40 µM [16] [%]	viability at 48 h, 60 µM [17] [%]	viability at 48 h, 80 µM [18] [%]	viability at 48 h, 100 µM [19] [%]	Activity (BV-2 [20]) [%]	Activity (BV-2 [21]) [%]	Activity (BV-2 [22]) [%]	Activity (BV-2 [23]) [%]	Activity (BV-2 [24]) [%]	Activity (BV-2 [25]) [%]	other results
O=C1COCCN1c1ccc(/N=C/c2cn(CCCn3cc(/C=N/c4ccc(N5CCOCC5=O)cc4)c4ccccc43)c3ccccc23)cc1	inactive	> 100	Active	Active	99.9	97.1	94.1	91.3	93.1	95.3	79.8	72.4	67.6	61.4	107.9186	102.1493	90.26	80.53	126.5089	111.7925	inhibition at 10 µM (BV-2 [5]): 36.8%; inhibition at 20 µM (BV-2 [6]): 43.6%; inhibition at 10 µM (BV-2 [7]): 13.8%; inhibition at 20 µM (BV-2 [8]): 23.8%; inhibition in vivo at 10 mg/kg (Mus musculus [9]): 65.5%
NC(=O)N1C(=O)/C(=C(\O)c2cccs2)c2cc(Cl)ccc21 [TENIDAP]	–	–	–	–	–	–	–	–	–	–	–	–	–	–	–	–	–	–	–	–	inhibition at 60 µM (BV-2 [26]): 67%
Cc1ccc(S(=O)(=O)n2cc(/C=N\c3ccc(N4CCOCC4=O)cc3)c3ccccc32)cc1	inactive	> 100	Active	Active	90.9	92.1	89.1	86.4	71	56.7	58.1	56	57.8	57.4	108.5973	108.2579	90.58	70.48	101.2128	94.84	inhibition at 10 µM (BV-2 [5]): 36.5%; inhibition at 20 µM (BV-2 [6]): 50.6%; inhibition at 10 µM (BV-2 [7]): 31%; inhibition at 20 µM (BV-2 [8]): 35.4%; inhibition (Mus musculus [28]): Active; inhibition [29]: Active; Activity (BV-2 [30]): 95.906%; Activity (BV-2 [31]): 96.245%
COc1ccc2c(c1)c(CC(=O)O)c(C)n2C(=O)c1ccc(Cl)cc1 [INDOMETHACIN]	–	–	–	–	–	–	–	–	–	–	–	–	–	–	–	–	–	–	–	–	inhibition at 100 µM (BV-2 [32]): 50%
O=C1COCCN1c1ccc(/N=C\c2c[nH]c3ccccc23)cc1	inactive	> 100	Active	Active	104	105	101	98.5	100	104	105	90.8	97.8	101	104.5249	104.8643	66.71	56.03	91.1848	89.05	inhibition at 10 µM (BV-2 [5]): 53.3%; inhibition at 20 µM (BV-2 [6]): 60.8%; inhibition at 10 µM (BV-2 [7]): 37.9%; inhibition at 20 µM (BV-2 [8]): 39.3%; inhibition (Mus musculus [28]): Active; inhibition [29]: Active; inhibition (BV-2 [33]): Active; inhibition (BV-2 [34]): Active; Activity (BV-2 [30]): 96.273%; Activity (BV-2 [31]): 94.929%

The next lines start with results.

inhibition [4]	SMILES	IC50 (BV-2 [1]) [µM]	Activity (BV-2 [2])	Activity (BV-2 [3])	viability at 48 h, 0.5 µM [10] [%]	viability at 48 h, 1 µM [11] [%]	viability at 48 h, 5 µM [12] [%]	viability at 48 h, 10 µM [13] [%]	viability at 48 h, 15 µM [14] [%]	viability at 48 h, 20 µM [15] [%]	viability at 48 h, 40 µM [16] [%]	viability at 48 h, 60 µM [17] [%]	viability at 48 h, 80 µM [18] [%]	viability at 48 h, 100 µM [19] [%]	Activity (BV-2 [20]) [%]	Activity (BV-2 [21]) [%]	Activity (BV-2 [22]) [%]	Activity (BV-2 [23]) [%]	Activity (BV-2 [24]) [%]	Activity (BV-2 [25]) [%]	other results
inactive	O=C1COCCN1c1ccc(/N=C\c2cn(Cc3ccccc3)c3ccccc23)cc1	> 100	Active	Active	86.6	89.3	84	91.3	95.7	87.8	69.5	65	58.7	56.2	129.638	103.8462	217.4584	183.8555	265.8219	181.9833	–
inactive	O=C1COCCN1c1ccc(/N=C\c2cn(Cc3ccc(F)cc3)c3ccccc23)cc1	> 100	–	inactive	102	87.8	69.3	90	86.1	84.2	77.7	67.4	59	55.5	–	–	–	–	–	–	Activity (BV-2 [27]): inactive
inactive	O=C1COCCN1c1ccc(/N=C\c2cn(C(=O)c3ccccc3)c3ccccc23)cc1	> 100	Active	Active	104	109	87.3	88.6	86.6	85.1	72.6	57.5	58.4	52.9	97.74	98.08	199.2439	122.9276	258.2615	185.4729	–
